Source: ChEMBL document CHEMBL1129417, “Glucose transport-enhancing and hypoglycemic activity of 2-methyl-2-phenoxy-3-phenylpropanoic acids” (1996)

Legend:
Type in all cases: functional
3T3-L1 [1] = assay: In vitro measurements 2-Deoxyglucose (2DG) uptake in vehicle treated 3T3-L1 adipocytes at 100 uM dose.
Mus musculus [2] = assay: In vivo hypoglycemic activity expressed as glucose lowering relative to positive control in 6-8 week old C57BL/6J ob/ob mouse at 10 mg/kg
Mus musculus [3] = assay: compound was tested in vivo for hypoglycemic activity expressed as Glucose lowering relative to positive control in 6-8 week old C57BL/6J ob/ob mouse at 50 mg/kg
Rattus norvegicus [4] = species on record: Rattus norvegicus; assay: Inhibition of gluconeogenesis in rat
3T3-L1 [5] = assay: Acute effects in vitro by measuring 2-deoxyglucose (2DG) uptake in vehicle treated 3T3-L1 adipocytes at 10 uM dose.
3T3-L1 [6] = assay: Acute effects in vitro by measuring 2-deoxyglucose (2DG) uptake in vehicle treated 3T3-L1 adipocytes at 30 uM dose.
3T3-L1 [7] = assay: In vitro by measurements of 2-Deoxyglucose (2DG) uptake in vehicle treated 3T3-L1 adipocytes at 3 uM dose.
Mus musculus [8] = assay: compound was tested in vivo for hypoglycemic activity expressed as Glucose lowering relative to positive control in 6-8 week old C57BL/6J ob/ob mouse at 0.5 mg/kg
Mus musculus [9] = assay: In vivo hypoglycemic activity expressed as glucose lowering relative to positive control in 6-8 week old C57BL/6J ob/ob mouse at 1 mg/kg.
Mus musculus [10] = assay: In vivo hypoglycemic activity expressed as glucose lowering relative to positive control in 6-8 week old C57BL/6J ob/ob mouse at 5 mg/kg.
3T3-L1 [11] = assay: compound was evaluated for their acute effects in vitro by measuring 2-Deoxyglucose (2DG) uptake in vehicle treated 3T3-L1 adipocytes at 1 uM dose.
3T3-L1 [12] = assay: compound was evaluated for their acute effects in vitro by measuring 2-Deoxyglucose (2DG) uptake in vehicle treated 3T3-L1 adipocytes at 100 uM dose.
Mus musculus [13] = assay: compound was tested in vivo for hypoglycemic activity in 6-8 week old C57BL/6J ob/ob mouse at 50 mg/kg
Rattus norvegicus [14] = species on record: Rattus norvegicus; assay: Compound was tested for inhibition of gluconeogenesis; conditions: Rattus norvegicus; read-out: ED50
L6 = assay: compound was evaluated for their acute effects in vitro by measuring 2-Deoxyglucose (2DG) uptake in vehicle treated L6 […] at 60 uM dose.
Mus musculus [15] = assay: compound was tested in vivo for hypoglycemic activity expressed as Glucose lowering relative to positive control in 6-8 week old C57BL/6J ob/ob mouse at 25 mg/kg
3T3-L1 [16] = assay: compound was evaluated for their acute effects in vitro by measuring 2-Deoxyglucose (2DG) uptake in vehicle treated 3T3-L1 adipocytes at 10 uM dose.
3T3-L1 [17] = assay: compound was evaluated for their acute effects in vitro by measuring 2-Deoxyglucose (2DG) uptake in vehicle treated 3T3-L1 adipocytes at 30 uM dose.
3T3-L1 [18] = assay: compound was evaluated for their acute effects in vitro by measuring 2-Deoxyglucose (2DG) uptake in vehicle treated 3T3-L1 adipocytes at 3 uM dose.
Mus musculus [19] = assay: compound was tested in vivo for hypoglycemic activity in 6-8 week old C57BL/6J ob/ob mouse at 10 mg/kg
Mus musculus [20] = assay: compound was tested in vivo for hypoglycemic activity in 6-8 week old C57BL/6J ob/ob mouse at 25 mg/kg
[21] = Rattus norvegicus, read-out: ED50

CC(C)c1ccc(OC(Cc2ccc(Br)cc2)C(=O)O)cc1 (stereo not given)
Basal uptake (3T3-L1 [1]): 203% | Hypoglycemic activity (Mus musculus [2]): <0% | Hypoglycemic activity (Mus musculus [3]): 122% | ED50 (Rattus norvegicus [4]; [21]): 10 mg/kg

CC(C)c1ccc(OC(Cc2ccc3ccccc3c2)C(=O)O)cc1 (stereo not given)
Basal uptake (3T3-L1 [1]): 143% | Hypoglycemic activity (Mus musculus [3]): 45% | ED50 (Rattus norvegicus [4]; [21]): 50 mg/kg

CC(C)c1ccc(OC(C)(Cc2ccc(-c3ccccc3)cc2)C(=O)[O-])cc1.[Na+] (stereo not given)
Basal uptake (3T3-L1 [5]): 129% | Basal uptake (3T3-L1 [6]): 126% | Basal uptake (3T3-L1 [7]): 122% | Hypoglycemic activity (Mus musculus [8]): 21% | Hypoglycemic activity (Mus musculus [2]): 116% | Hypoglycemic activity (Mus musculus [9]): 58% | Hypoglycemic activity (Mus musculus [10]): 93% | ED50 (Rattus norvegicus [4]; [21]): 1 mg/kg

CC(C)c1ccc(OC(C)(C(=O)NS(=O)(=O)C(F)(F)F)C(C)c2ccc(Cl)cc2)cc1 (stereo not given)
Basal uptake (3T3-L1 [5]): 248% | Basal uptake (3T3-L1 [11]): 94% | Basal uptake (3T3-L1 [6]): 113% | Hypoglycemic activity (Mus musculus [2]): 7% | ED50 (Rattus norvegicus [4]; [21]): > 10 mg/kg

C1CCC(NC2CCCCC2)CC1.CC(C)c1ccc(OC(Cc2ccc(Cl)c(Cl)c2)C(=O)O)cc1 (stereo not given)
Basal uptake (3T3-L1 [12]): 225% | Hypoglycemic activity (Mus musculus [13]): 65% | ED50 (Rattus norvegicus [14]): < 50 mg/kg

COc1ccc(OC(Cc2ccc(Cl)cc2)C(=O)O)cc1 (stereo not given)
Basal uptake (L6): 98% | Hypoglycemic activity (Mus musculus [15]): 23% | ED50 (Rattus norvegicus [4]; [21]): > 25 mg/kg

C1CCC(NC2CCCCC2)CC1.CC(C)c1ccc(OC(Cc2ccccc2C(F)(F)F)C(=O)O)cc1 (stereo not given)
Basal uptake (3T3-L1 [12]): 191% | Hypoglycemic activity (Mus musculus [13]): <0% | ED50 (Rattus norvegicus [14]): > 50 mg/kg

CC(Cc1ccc(Cl)cc1)(Oc1ccc(C2CCSc3ccccc32)cc1)C(=O)[O-].[Na+] (stereo not given)
Basal uptake (3T3-L1 [5]): 118% | Basal uptake (3T3-L1 [11]): 98% | Basal uptake (3T3-L1 [6]): 157% | Basal uptake (3T3-L1 [7]): 130% | Hypoglycemic activity (Mus musculus [2]): 38% | ED50 (Rattus norvegicus [4]; [21]): 10 mg/kg

CCC(c1ccc(Cl)cc1)C(C)(Oc1ccc(C(C)C)cc1)C(=O)O (stereo in doubt; 87)
Basal uptake (3T3-L1 [5]): 96% | Basal uptake (3T3-L1 [11]): 98% | Basal uptake (3T3-L1 [6]): 109% | Hypoglycemic activity (Mus musculus [2]; 10 mg/kg): 32% | ED50 (Rattus norvegicus [4]): >10 mg/kg

CC(C)c1ccc(OC(C)(C[N-]SC(F)(F)F)Cc2ccc(Cl)cc2)cc1.[Na+] (stereo not given)
Basal uptake (3T3-L1 [16]): 132% | Basal uptake (3T3-L1 [17]): 159% | Basal uptake (3T3-L1 [18]): 127% | Hypoglycemic activity (Mus musculus [19]): <0% | ED50 (Rattus norvegicus [14]): > 10 mg/kg

CC(C)c1ccc(CC(C)(Cc2ccc(Cl)cc2)C(=O)O)cc1 (stereo not given)
Hypoglycemic activity (Mus musculus [19]): 20% | ED50 (Rattus norvegicus [14]): > 10 mg/kg

CC(Cc1ccc2c(c1)CCC2)(Oc1ccc(Cc2ccccc2)cc1)C(=O)[O-].[Na+] (stereo not given)
Hypoglycemic activity (Mus musculus [8]): 50% | Hypoglycemic activity (Mus musculus [2]): 120% | Hypoglycemic activity (Mus musculus [9]): 78% | Hypoglycemic activity (Mus musculus [10]): 102% | ED50 (Rattus norvegicus [4]; [21]): 0.5 mg/kg

CC(C)c1ccc(OC(C)(Cc2ccc(C(F)(F)F)cc2)C(=O)O)cc1 (stereo not given)
Basal uptake (L6): 103% | Hypoglycemic activity (Mus musculus [10]): 65% | ED50 (Rattus norvegicus [4]; [21]): < 5 mg/kg

CC(C)c1ccc(C(F)C(C)(Cc2ccc(Cl)cc2)C(=O)O)cc1 (stereo in doubt; 95)
Hypoglycemic activity (Mus musculus [19]; 10 mg/kg): 50% | ED50 (Rattus norvegicus [14]): 10 mg/kg

C1CCC(NC2CCCCC2)CC1.CC(C)c1ccc(OC(CCc2ccc(Cl)cc2)C(=O)O)cc1 (stereo not given)
Basal uptake (3T3-L1 [12]): 89% | Basal uptake (L6): 89% | Hypoglycemic activity (Mus musculus [20]): 64% | ED50 (Rattus norvegicus [14]): < 25 mg/kg

CC(C)c1ccc(OC(Cc2ccc(Cl)cc2Cl)C(=O)O)cc1 (stereo not given)
Basal uptake (3T3-L1 [1]): 222% | Hypoglycemic activity (Mus musculus [2]): 30% | Hypoglycemic activity (Mus musculus [3]): 70% | Hypoglycemic activity (Mus musculus [10]): 45% | ED50 (Rattus norvegicus [4]; [21]): 10 mg/kg

CC(C)c1ccc(OC(C)(Cc2ccccc2-c2ccccc2)C(=O)[O-])cc1.[Na+] (stereo not given)
Basal uptake (3T3-L1 [5]): 228% | Basal uptake (3T3-L1 [11]): 97% | Basal uptake (3T3-L1 [6]): 167% | Basal uptake (3T3-L1 [7]): 148% | Hypoglycemic activity (Mus musculus [2]): 54% | ED50 (Rattus norvegicus [4]; [21]): 10 mg/kg

COc1ccc(CC(Oc2ccc(C(C)C)cc2)C(=O)O)cc1 (stereo not given)
Basal uptake (3T3-L1 [1]): 127% | Hypoglycemic activity (Mus musculus [3]): <0% | ED50 (Rattus norvegicus [4]; [21]): > 50 mg/kg
